pIC50: −log10 of the molar value.
Molecular target: T1, hERG channel (Homo sapiens, UniProt Q12809)
T1 construct: expressed in transfected cells; host or cells: CHO (CHOhERG)
Test: hERG channel inhibition assay (patch-clamp, CHOhERG cells)
Assay type: cell-based
Settings: for pIC50 / IC20: CHOhERG cells, whole-cell patch-clamp; for IC20: human, CHO cells stably expressing hERG (CHOhERG); for hERG IC20/TLR7 IC50 / hERG IC20/TLR8 IC50 / hERG IC20/TLR9 IC50: safety ratio; for hERG IC20/TLR7 IC50: hERG IC20 over HEK/hTLR7 IC50; for hERG IC20/TLR8 IC50: hERG IC20 over HEK/hTLR8 IC50; for hERG IC20/TLR9 IC50: hERG IC20 over HEK/hTLR9 IC50
Description: The hERG K^+ channels were cloned in humans and stably expressed in a CHO (Chinese hamster ovary) cell line. CHOhERG cells were used for patch-clamp (voltage-clamp, whole-cell) experiments. Cells were stimulated by a voltage pattern to activate hERG channels and conduct IKhERG currents (rapid delayed outward rectifier potassium current of the hERG channel). After the cells were stabilized for a few minutes, the amplitude and kinetics of IKhERG were recorded at a stimulation frequency of 0.1 Hz (6 bpm). Thereafter, the test compound was added to the preparation at increasing concentrations. For each concentration, an attempt was made to reach a steady-state effect, usually, this was achieved within 3-10 min at which time the next highest concentration was applied. The amplitude and kinetics of IKhERG are recorded in each concentration of the drug which were compared to the control values (taken as 100%). (references: Redfern W S, Carlsson L, Davis A S, Lynch W G, MacKenzie I, Palethorpe S, Siegl P K, Strang I, Sullivan A T, Wallis R, Camm A J, Hammond T G. 2003; Relationships between preclinical cardiac electrophysiology, clinical QT interval prolongation and torsade de pointes for a broad range of drugs: evidence for a provisional safety margin in drug development. Cardiovasc. Res. 58:32-45, Sanguinetti MC, Tristani-Firouzi M. 2006; hERG potassium channels and cardiac arrhythmia. Nature 440:463-469, Webster R, Leishman D, Walker D. 2002; Towards a drug concentration effect relationship for QT prolongation and torsades de pointes. Curr. Opin. Drug Discov. Devel. 5:116-26).

T1 sequence (Q12809 whole entry): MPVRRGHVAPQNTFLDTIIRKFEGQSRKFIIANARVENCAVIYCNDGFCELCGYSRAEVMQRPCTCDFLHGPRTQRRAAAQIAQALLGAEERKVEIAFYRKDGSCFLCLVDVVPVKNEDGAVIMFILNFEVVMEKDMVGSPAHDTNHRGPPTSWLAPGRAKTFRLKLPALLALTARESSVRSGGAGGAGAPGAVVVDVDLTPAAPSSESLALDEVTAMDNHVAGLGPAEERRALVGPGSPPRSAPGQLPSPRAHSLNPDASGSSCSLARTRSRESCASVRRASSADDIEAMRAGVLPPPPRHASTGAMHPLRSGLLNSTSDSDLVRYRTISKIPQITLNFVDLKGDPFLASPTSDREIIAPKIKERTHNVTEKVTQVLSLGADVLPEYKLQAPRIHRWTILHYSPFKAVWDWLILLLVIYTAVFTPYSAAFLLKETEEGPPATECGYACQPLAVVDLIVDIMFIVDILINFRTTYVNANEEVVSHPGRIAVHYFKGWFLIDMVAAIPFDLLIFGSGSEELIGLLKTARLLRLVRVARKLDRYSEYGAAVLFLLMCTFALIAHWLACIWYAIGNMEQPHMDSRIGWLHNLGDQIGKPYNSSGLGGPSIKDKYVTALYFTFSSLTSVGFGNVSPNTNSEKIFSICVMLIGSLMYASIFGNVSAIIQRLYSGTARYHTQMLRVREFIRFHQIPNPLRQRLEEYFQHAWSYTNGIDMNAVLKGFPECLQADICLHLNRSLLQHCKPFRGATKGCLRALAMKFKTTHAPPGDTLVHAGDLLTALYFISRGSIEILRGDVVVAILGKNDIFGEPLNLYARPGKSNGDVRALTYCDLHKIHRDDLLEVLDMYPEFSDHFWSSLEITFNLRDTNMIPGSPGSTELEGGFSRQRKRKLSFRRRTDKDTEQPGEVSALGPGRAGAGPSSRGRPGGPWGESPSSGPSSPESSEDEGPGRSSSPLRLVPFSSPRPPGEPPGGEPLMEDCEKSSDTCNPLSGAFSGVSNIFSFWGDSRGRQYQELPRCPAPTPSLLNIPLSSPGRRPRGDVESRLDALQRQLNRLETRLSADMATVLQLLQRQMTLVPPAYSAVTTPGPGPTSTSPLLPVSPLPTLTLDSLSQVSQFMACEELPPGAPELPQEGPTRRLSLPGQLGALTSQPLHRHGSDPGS

Row | SMILES | pIC50 | IC20 [µM] | hERG IC20/TLR7 IC50 | hERG IC20/TLR8 IC50 | hERG IC20/TLR9 IC50
1 | C[C@H]1CN(c2ccnc3c2cnn3C)Cc2ccc(OCCN3CCNCC3)cc21 [Example 40, (4R)-4-methyl-2-(1-methylpyrazolo[3,4-b]pyridin-4-yl)-6-(2-piperazin-1-ylethoxy)-3,4-dihydro-1H-isoquinoline] | < 4.70 | > 10 | >1250.0 | >1428.6 | >30.7
2 | Cc1cc(N2Cc3ccc(OC[C@H]4CNCCN4)cc3[C@@H](C)C2)c2cnn(C)c2n1 [Example 30, (4R)-2-(1,6-dimethylpyrazolo[3,4-b]pyridin-4-yl)-4-methyl-6-[[(2R)-piperazin-2-yl]methoxy]-3,4-dihydro-1H-isoquinoline] | < 4.70 | 6.5 | 175.7 | 3250.0 | 73.9
3 | C[C@H]1CN(c2ccnc3c2cnn3C)Cc2ccc(O[C@@H]3C[C@H]4CNCCN4C3)cc21 [Example 42, (4R)-4-methyl-2-(1-methylpyrazolo[3,4-b]pyridin-4-yl)-6-[[(7R,8aS)-1,2,3,4,6,7,8,8a-octahydropyrrolo[1,2-a]pyrazin-7-yl]oxy]-3,4-dihydro-1H-isoquinoline] | < 4.70 | > 10 | >3333.3 | >5000.0 | >25.1
4 | CO[C@@H]1CN(c2ccc3c(c2)[C@@H](C)CN(c2ccnc4c2cnn4C)C3)C[C@H]1N [Example 20, (3R,4R)-4-methoxy-1-[(4R)-4-methyl-2-(1-methylpyrazolo[3,4-b]pyridin-4-yl)-3,4-dihydro-1H-isoquinolin-6-yl]pyrrolidin-3-amine] | < 4.70 | 6.2 | 2066.7 | 364.7 | 25.9
5 | Cc1cc(N2Cc3cnc(N4CC[C@@H](N)[C@H](F)C4)cc3[C@@H](C)C2)c2cnn(C)c2n1 [Example 80, (3R,4R)-3-fluoro-1-[(5R)-7-(1,6-dimethylpyrazolo[3,4-b]pyridin-4-yl)-5-methyl-6,8-dihydro-5H-2,7-naphthyridin-3-yl]piperidin-4-amine] | < 4.70 | > 10 | >833.3 | >294.1 | >137.0
6 | C[C@H]1CN(c2ccnc3c2cnn3C)Cc2ccc(N3CC4(CNCCO4)C3)cc21 [Example 21, 2-[(4R)-4-methyl-2-(1-methylpyrazolo[3,4-b]pyridin-4-yl)-3,4-dihydro-1H-isoquinolin-6-yl]-5-oxa-2,8-diazaspiro[3.5]nonane] | < 4.70 | > 10 | >1428.6 | >714.3 | >26.9
7 | C[C@H]1CN(c2ccnc3c2cnn3C)Cc2ccc(N3CC4(CNC4)CC3=O)cc21 [Example 34, 6-[(4R)-4-methyl-2-(1-methylpyrazolo[3,4-b]pyridin-4-yl)-3,4-dihydro-1H-isoquinolin-6-yl]-2,6-diazaspiro[3.4]octan-7-one] | < 4.70 | > 10 | >384.6 | >384.6 | >50.5
8 | Cc1cc(N2Cc3cnc(O[C@@H]4C[C@H]5CNCCN5C4)cc3[C@@H](C)C2)c2cnn(C)c2n1 [Example 76, (4R)-2-(1,6-dimethylpyrazolo[3,4-b]pyridin-4-yl)-4-methyl-6-[[(7R,8aS)-1,2,3,4,6,7,8,8a-octahydropyrrolo[1,2-a]pyrazin-7-yl]oxy]-3,4-dihydro-1H-2,7-naphthyridine] | < 4.70 | > 10 | >526.3 | >625.0 | >69.4
9 | Cc1cc(N2Cc3cnc(OCCN4CCNCC4)cc3[C@@H](C)C2)c2cnn(C)c2n1 [Example 77, (4R)-2-(1,6-dimethylpyrazolo[3,4-b]pyridin-4-yl)-4-methyl-6-(2-piperazin-1-ylethoxy)-3,4-dihydro-1H-2,7-naphthyridine] | < 4.70 | > 10 | >526.3 | >625.0 | >69.4
10 | C[C@H]1CN(c2ccnc3c2cnn3C)Cc2ccc(N3C[C@@]4(CCNC4)CC3=O)cc21 (single isomer, unassigned) [Example 53] | < 4.70 | > 10 | >555.6 | >1666.7 | >47.6
11 | C[C@H]1CN(c2ccnc3c2cnn3C)Cc2ccc(OC[C@@H]3CNCCN3C)cc21 [Example 44, (4R)-4-methyl-2-(1-methylpyrazolo[3,4-b]pyridin-4-yl)-6-[[(2S)-1-methylpiperazin-2-yl]methoxy]-3,4-dihydro-1H-isoquinoline] | < 4.70 | > 10 | >666.7 | >2000.0 | >42.7
12 | C[C@H]1CN(c2ccnc3c2cnn3C)Cc2ccc(N3CC4(CCNCC4)CC3=O)cc21 [Example 16, 2-[(4R)-4-methyl-2-(1-methylpyrazolo[3,4-b]pyridin-4-yl)-3,4-dihydro-1H-isoquinolin-6-yl]-2,8-diazaspiro[4.5]decan-3-one] | < 4.70 | > 10 | >2000.0 | >2500.0 | >158.7
13 | C[C@H]1CN(c2ccnc3c2cnn3C)Cc2ccc(N3C[C@@H]4CNCCN4C3=O)cc21 [Example 25, (8aS)-2-[(4R)-4-methyl-2-(1-methylpyrazolo[3,4-b]pyridin-4-yl)-3,4-dihydro-1H-isoquinolin-6-yl]-1,5,6,7,8,8a-hexahydroimidazo[1,5-a]pyrazin-3-one] | < 4.70 | > 10 | >666.7 | >33333.3 | >34.4

Reference: US20240317735A1, “HYDROISOQUINOLINE OR HYDRONAPHTHYRIDINE COMPOUNDS FOR THE TREATMENT OF AUTOIMMUNE DISEASE” (Hoffmann-La Roche Inc., priority 2020, published 2024)
